Measured values: a melting point compilation (Tetko et al.)

Conditions: a range is the spread between reports

Compound	melting point [°C]
O=C1c2ccccc2Cc2ccccc21	155 to 157
O=C(O)C=Cc1ccc(Br)cc1	262 to 263
Cc1ccccc1	-95 to -93
O=C(O)c1cc(-c2ccccc2)nc2ccccc12	214 to 215
CCOC(=O)C(C)(C)C	-90 to -89.5
O=C1CCCCCCCCCCCCCCO1	32 to 35
CC(=O)N[C@@H](Cc1ccc(O)cc1)C(=O)O	149 to 153
O=C(O)CCC(=O)C(=O)O	115 to 116
COc1ccc(CC(=O)O)cc1OC	97 to 98
C1CCCCCCC1	12 to 15
c1cc2cccc3c4cccc5cccc(c(c1)c23)c54	274 to 278
C1CCSC1	-96.1 to -96
C=CCCCCCCCC	-66.3 to -66
OCCOc1ccccc1	12 to 14
C[Si](C)(C)C#C[Si](C)(C)C	22 to 26
Clc1ccccc1Br	-13 to -12.3
CCc1cccc(-c2ccccc2)c1	-28 to -27.5
CCCCCCCBr	-58 to -56
C[Si]1(C)N[Si](C)(C)N[Si](C)(C)N[Si](C)(C)N1	96 to 97.5
CCCCCC(=O)O	-4 to -1.9
C1=CCC=CC1	-49.2 to -49

Compound	melting point [°C]
O=C(O)C1CC1	15.5 to 18.5
O=C1OC(=O)c2ccccc21	131 to 132
C=CCBr	-119
Cc1ccc(N)cc1N	97 to 99
O=C(O)c1cc(Cl)cc(Cl)c1O	220 to 224
CCc1ccc(O)cc1O	97 to 98.5
O=C(O)c1ccc([N+](=O)[O-])cc1[N+](=O)[O-]	181 to 182
NCCCCCCCN	28 to 28.9
Nc1cccc(Oc2ccccc2)c1	36 to 37
CCOc1ccc(C(C)(C)COCc2cccc(Oc3ccccc3)c2)cc1	36 to 37
O=C1CCCCN1	37 to 39.5
OCC1c2ccccc2-c2ccccc21	104 to 106
CCOC(=O)CNc1ccccc1	57 to 58
S=C=S	-112
COc1ccc2ccccc2c1C=O	83 to 84
O=C(O)c1cccc(C(=O)O)c1	342 to 347
Cc1c[nH]c(=O)[nH]c1=O	316 to 317
Brc1ccc(Br)cc1	87 to 88
Nc1cccc(CO)c1	93 to 95
Brc1c(Br)c(Br)c(Oc2c(Br)c(Br)c(Br)c(Br)c2Br)c(Br)c1Br	305 to 306
CC(=O)Nc1ccccc1	114 to 115

Compound	melting point [°C]
O=[N+]([O-])c1cccc([N+](=O)[O-])c1Cl	86 to 88
O=[N+]([O-])c1ccc2c3c(cccc13)CC2	103 to 104
N#Cc1cccc(O)c1	79.5 to 82
CCOc1ccc([N+](=O)[O-])cc1	58 to 60
NC(=O)c1ccc(C(F)(F)F)cc1	184 to 185
OCCOc1ccc2ccccc2c1	74 to 76.7
CC#CCO	-2.2 to -2
O=C(O)Cc1cccc(O)c1	130 to 132
COc1ccccc1C(=O)O	99 to 101
COc1ccc(C=O)cc1OC	43 to 44
CC(C)CC(=O)CC(C)C	-42 to -41.5
Clc1cc(Cl)cc(Cl)c1	63.4 to 65
Cc1cccc(O)c1C	71.5 to 75
N#CC(c1ccccc1)c1ccccc1	74 to 74.3
C=CC(=C)C	-146
O=C(O)CCCl	39 to 41
Oc1ccc2ccccc2c1/N=N/c1ccccc1	132 to 134
CC(=O)C(=O)O	11 to 13.8
O=C1CCCCCCCCC1	24 to 28
OCCOCCO	-10.4 to -10
CC(C)C1CCCC1	-111

Compound	melting point [°C]
CC(C)CCCC(C)C1CCC2C3CC=C4CC(O)CCC4(C)C3CCC12C (centres undefined)	148 to 149
Fc1ccccc1	-42.2 to -40
C=C(Cl)C(=O)O	65 to 66
CC(CO)(CO)C(=O)O	189 to 190
COc1ccc(O)cc1	55 to 57
Clc1cc(Cl)c(Cl)c(Cl)c1Cl	85 to 86
CCC(=O)c1ccc(O)cc1O	99 to 100
NCCNCCN	-40 to -35
COC(=O)c1cc2ccccc2cc1O	73 to 75.5
Nc1ccc2ncsc2c1	87 to 88
COc1ccc(CC#N)cc1OC	62.8 to 64
CC(C)(Oc1ccc(Cl)cc1)C(=O)O	118 to 120
CC(C)(C)c1cccc(C(C)(C)C)n1	2 to 2.2
CC(C)CCOC=O	-93.5 to -93
CC(=O)c1ccc(Cl)cc1Cl	33 to 34
COCC(=O)O	7.7 to 8
CC(C)(C)c1ccc2oc(-c3ccc(-c4nc5cc(C(C)(C)C)ccc5o4)s3)nc2c1	199 to 201
Oc1ccccc1F	15 to 16.1
O=P(O)(O)CP(=O)(O)O	200 to 203
CCCc1ccc(C(=O)O)cc1	142 to 143
CCCCCCCCCCN	13 to 17
